We go through two compounds from patent publication US12551469B2 (priority 2020, dated 2026).

In one data set the test system is ARDS induced thrombosis. As to the kind of experiment: Rat venous stasis (Wessler) model after LPS-induced lung injury (ARDS). Format: in vivo, Sprague-Dawley rats. An excerpt:
This study assessed the efficacy of ABC294640 to reduce the incidence of adverse thromboembolic events in situ in acute respiratory distress syndrome (ARDS) conditions using a rat venous stasis model. This assay is designed to measure thrombotic risks following LPS-induced lung injury. LPS-induced lung injury is one of the most commonly used rodent models for ARDS and was described to mimic the neutrophilic inflammatory response observed in ARDS patients. The mechanism of LPS-induced ARDS is based on damage to endothelial cells and a systemic inflammatory response.
The venous stasis (Wessler) test in animals has been used extensively for over 40 years as a laboratory measure for in vivo hypercoagulability.
Test compound was administered by oral gavage 3 hours post-instillation and 24, 48 and 72 hours post-instillation, at a dose of 250 mg/kg. The appropriate amount of LPS from E. coli (O55:B5) was diluted in saline to obtain a final concentration of 400 μg/mL. This solution was given by intratracheal instillation (0.5 mL/kg). The vehicle was composed of PBS pH 7.4±0.1. ABC294640 was weighed and transferred in vehicle (PBS, 0.375%, pH 7.4) to obtain a final solution at 25 mg/mL. ABC294640 solution is stirred for 10 minutes at room temperature prior to dosing. This solution was given by oral gavage (250 mg/kg, 10 mL/kg).
Sprague-Dawley rats (male) weighing between 275 and 400 g were used for this study. Animals were randomly assigned to a treatment group by the Study Director. Food and water were given ad libitum. Observation for behavior and general health status were done until the sacrifice. The body weight was recorded before the instillation and 24, 48 and 72 hours post-instillation.
In this study, ARDS was induced by intratracheal instillation of LPS. Throughout the ARDS induction and development process, animal was dosed by oral gavage with vehicle or ABC294640 (3 h, 24 h, 48 and 72 hours post-instillation). […] The stasis was maintained for 30 minutes. The segment was then excised and its content scored. Subsequently, animal was euthanized by exsanguination.
• 1. Prior LPS or saline instillation, the functional respiratory parameters of all rat was assessed by whole-body plethysmography and SpO2 was evaluated on conscious rat with a collar probe pulse oximeter. Rat was first acclimatized to the plethysmograph chamber prior to the physiological assessment. The respiratory rate, the Penh and the inspiratory/expiratory time measurements was analyzed. • 2. […]
• 5. Rats were evaluated periodically to ensure animal well-being (general behavior and daily body weight). • 6. […] SpO2 and whole-body plethysmography were also evaluated 24, 48 and 72 hours post-instillation. • 8. […] The thrombi was measured, weighed and scored on a scale from 0 to 4 (see Table 2).

The test system of data set [1] is SARS-CoV-2 clinical isolate (2019-nCoV/USA-WA1/2020). The data set is described as follows: Anti-viral activity against SARS-CoV-2 in HBEC (EpiAirway) ALI cultures, apical viral titer by TCID50 assay. Format: cell-based.
A further data set deals with COVID-19 infection. The data set is described as follows: Pilot / compassionate use study of opaganib in hospitalized patients with COVID-19 pneumonia. In kind it is in vivo, human. The procedure:
Patients entered a screening period of up to 1 week. Eligible patients entered the treatment period for up to 2 weeks. All participants were followed for 2 weeks after their last dose of study drug, at the end of the 2 week treatment period, or once they had 2 consecutive daily negative viral swabs for the COVID-19 virus or at after premature drug discontinuation prior to Day 14. The maximum duration of study participation was 35 days […].
Each dose is administered with food or 15-30 minutes after tube-feeding, where appropriate. […] These patients had moderate to severe COVID-19-related pneumonia with hypoxia on supplemental oxygen.
Five patients were included in the analysis, and for comparison purposes, we used a control group with same-sex, same-severity patients (baseline characteristics). Univariate comparisons between the groups were performed with chi-square test for categorical variables and t-test or MannWhitney U-test for continuous variables, as appropriate. Time variables were compared with Cox proportional hazard regression, adjusted for age and background illnesses. CRP and lymphocyte changes were compared utilizing a repeated measures general linear model with a Bonferroni correction for multiple comparison.

The next data set concerns COVID-19 pneumonia. The data set is described as follows: Randomized, double-blind, placebo-controlled Phase 2a study of opaganib in COVID-19 pneumonia. Format: in vivo, human. The text has this:
This was a phase 2a, proof of concept, multi-center randomized double-blind, parallel arm, placebo-controlled study. After informed consent was obtained, patients entered a screening phase for no more than 3 days, to determine eligibility. […] Treatment assignments remained blinded to the patient, investigator and hospital staff, as well as the sponsor. As there was no consensus for a definitive treatment specifically targeting the SARS-CoV-2 virus causing COVID-19 (Wilson, 2020), standard of care referred to regional, institutional or physician directed therapies, that were implemented during the COVID-19 pandemic.
Study drug was to be administered every day for 14 days (Day 1 to Day 14), unless the patient had been discharged from the hospital without requiring supplemental oxygen, in which case study drug would only be administered to Day 10.
Two patients were randomized in each group but not treated. […] Two patients in the opaganib arm experienced adverse events such that study drug was terminated, while one placebo patient was terminated due to an adverse event.
The primary efficacy endpoint calculated for each patient the area under the curve of the supplemental oxygen requirement through day 14, using the trapezoidal rule after subtracting the baseline oxygen requirement at each day. Days where no supplementary oxygen was needed, were recorded as 0. If several values of oxygen requirement (L/min) are recorded in a certain day, for the primary analysis the highest of these values were taken. In the primary analysis, for patients who die before Day 14, or require intubation and mechanical ventilation, missing daily values were assigned the maximal supplemental oxygen flow requirement of 8 L/min. […]
Supplemental oxygen requirement up to Day 14 was collected even if a patient discontinued treatment prior to Day 14 but continued in the study to Day 14. […] A sensitivity analysis to the above missing data handling approach was performed using an AUC summary statistics approach, in which groups AUC is calculated from the estimated parameters of a Repeated-Measures model. […]

Data set [2] deals with human bronchial epithelial cells (HBEC). The conditions noted are these: male.

With `O=C(NCc1ccncc1)C12CC3CC(C1)CC(c1ccc(Cl)cc1)(C3)C2` [ABC294640, 3-(4-chlorophenyl)-adamantane-1-carboxylic acid (pyridin-4-ylmethyl)amide], in the data set on ARDS induced thrombosis (250 mg/kg oral gavage), the blood clot length entry is “reduction” and the blood clot weight entry is reported as “reduction”. In addition, in the data set with ARDS induced thrombosis (250 mg/kg oral gavage 3, 24, 48, 72 h post LPS instillation, 30 min stasis), the thrombosis entry is “reduction of thrombosis”. Also, the total thrombus score entry with ARDS induced thrombosis (250 mg/kg oral gavage, score 0 to 4) is listed as “reduction”.
Turning to `Cl.O=C(NCc1ccncc1)C12CC3CC(C1)CC(c1ccc(Cl)cc1)(C3)C2` [opaganib, 3-(4-chlorophenyl)-adamantane-1-carboxylic acid (pyridin-4-ylmethyl) amide, hydrochloride salt], the “50% inhibition reached in concentration range tested” value in data set [1] (0.05 to 11.25 μg/ml) is “neither 50% inhibition nor 50% cytotoxicity were reached”. Further, in data set [1] (3 days incubation), the “concentration at which complete inhibition of infectious virus production starts” value is 1 µg/mL. The infectious virus production entry in data set [1] (opaganib 0.05 to 11.25 μg/ml, 3 days incubation) was “dose-dependent reduction in infectious virus production”. Moreover, the “Clinical Assessment” value in the data set with COVID-19 infection (Patient 1 (14 d), started as severe on maximal OptiFlow 3 Apr. 2020, one negative viral swab as of 22 April) is recorded as 3 Apr. 2020; RA by 16 April; in the data set with COVID-19 infection (Patient 2 (14 d), started as severe+, planning for intubation 7 Apr. 2020, RA by 20 Apr. 2020, D/C on 22 Apr. 2020), 7 Apr. 2020; RA by 20; in the data set with COVID-19 infection (Patient 3 (7 d), moderate-severe, on OptiFlow 13 Apr. 2020, RA by 17 Apr. 2020, D/C on 19 Apr. 2020) it was 13 Apr. 2020; RA by; in the data set with COVID-19 infection (Patient 4 (11 d), started severe+ 70% OptiFlow on 13 Apr. 2020) it was “RA on 22 Apr. 2020”; in the data set on COVID-19 infection (Patient 5 (2 d), started moderate on 13 Apr. 2020, nasal cannula, after one day on opaganib, D/C on 14 Apr. 2020 on RA), “Dramatic improvement”. For the same compound, the “C-Reactive Protein (CRP) change” value with COVID-19 infection (all six patients) is “reduction in C-Reactive Protein (CRP)”. The “clinical improvement, including reduced supplemental oxygenation and higher lymphocyte counts” value in the data set on COVID-19 infection (all six patients) is “measurable clinical improvement”. In the data set with COVID-19 infection (compared with 33% of controls), the “cases requiring mechanical ventilation” value is recorded as “none of the cases required mechanical ventilation”. For the same compound, in the data set on COVID-19 infection (five patients vs same-sex, same-severity control group), the “lymphocyte count increase vs. matched controls” value is “significantly faster increase in lymphocyte count”. Moreover, the “patients back to breathing room air” value in the data set on COVID-19 infection (of 6 treated patients) is recorded as 5 patients. Moreover, the “patients discharged from hospital” value in the data set on COVID-19 infection (of 6 treated patients) is 3 patients. Also, the “moderate to-severe patients improved significantly” value with COVID-19 infection (of seven compassionate use patients, patient #7 had only 1 day of treatment) is listed as 6 patients. The “patients with adverse events such that study drug was terminated” value with COVID-19 pneumonia (opaganib arm, one placebo patient) is “Two”. In the data set on COVID-19 pneumonia (top-line results), the “patients with serious adverse events (SAEs) vs. placebo arm” value is “fewer patients suffered from serious adverse events (SAEs)”. Further, in the data set with COVID-19 pneumonia (top-line results), the “safety vs. placebo arm” value is “safe, with no material safety differences”. Besides, in data set [2], the “50% cytotoxicity reached in concentration range tested” value is reported as “neither 50% inhibition nor 50% cytotoxicity were reached”.
